Laboratory results: patent US20150368296A1, “Method for preventing or treating heart diseases by using a composition containing an isolated peptide” (Tunghai University, priority 2014, published 2015)

Legend:
Format in all cases: in vivo
Bcl-2 protein = assay: Western blot of Bcl-2 in heart tissue of high-fat diet mice; conditions: high-fat diet C57BL/6 mice, 5, 10 and 25 mg/kg/day intraperitoneally (groups 3 to 5) vs group 2 (high-fat diet, saline); relative to tubulin
Method: (§1) The male C57BL/6 mice at the age of 6 weeks were divided into 5 groups for 8 mice in each group. […]
(§2) Protein concentration of the extract was determined by Lowry's protein assay method. […]
(§3) The protein extraction of the mice heart tissues from the each group in example 2 were processed by the western blot method in example 3 to observe the expressions of related apoptosis regulatory proteins in the mice heart tissues from the each group. The results were shown at FIGS. 2 and 3, wherein the tubulin was used for an internal control in FIG. 2 and the expression levels of related apoptosis regulatory proteins were calculated basing on the expression level of tubulin in each figure of FIG. 3.

cytochrome C = assay: Western blot of cytochrome C in heart tissue of high-fat diet mice; conditions: high-fat diet C57BL/6 mice, 5, 10 and 25 mg/kg/day intraperitoneally (groups 3 to 5) vs group 2 (high-fat diet, saline); relative to tubulin
Method: as §1, §2, §3

caspase-3 = assay: Western blot of activated caspase-3 in heart tissue of high-fat diet mice; conditions: high-fat diet C57BL/6 mice, 5, 10 and 25 mg/kg/day intraperitoneally (groups 3 to 5) vs group 2 (high-fat diet, saline); relative to tubulin
Method: as §1, §2, §3

[1] = system: nuclear factor of activated T-cells C3 (NFTA-C3); assay: Western blot of NFTA-C3 in heart tissue of high-fat diet mice; conditions: high-fat diet C57BL/6 mice, 5, 10 and 25 mg/kg/day intraperitoneally (groups 3 to 5) vs group 2 (high-fat diet, saline); relative to tubulin
Method: as §1, §2
(§4) The protein extraction of the mice heart tissues from the each group in example 2 were processed by the western blot method in example 3 to observe the expressions of nuclear factor of activated T-cells C3 (NFTA-C3) and calcineurin in the mice heart tissues from the each group. The results were shown at FIGS. 4 and 5, wherein the tubulin was used for an internal control in FIG. 4 and the expression levels of NFTA-C3 and calcineurin were calculated basing on the expression level of tubulin in each figure of FIG. 5.

calcineurin = assay: Western blot of calcineurin in heart tissue of high-fat diet mice; conditions: high-fat diet C57BL/6 mice, 5, 10 and 25 mg/kg/day intraperitoneally (groups 3 to 5) vs group 2 (high-fat diet, saline); relative to tubulin
Method: as §1, §2, §4

STAT-3 = assay: Western blot of STAT-3 in heart tissue of high-fat diet mice; conditions: high-fat diet C57BL/6 mice, 5, 10 and 25 mg/kg/day intraperitoneally (groups 3 to 5) vs group 2 (high-fat diet, saline); relative to tubulin
Method: as §1, §2
(§5) The protein extraction of the mice heart tissues from the each group in example 2 were processed by the western blot method in example 3 to observe the expressions of the related signal transduction proteins of heart hypertrophy including: STAT-3, IL-6, MEK-5 and ERK-5. The results were shown at FIGS. 6 and 7, wherein the tubulin was used for an internal control in FIG. 6 and the expression levels of the related signal transduction proteins of heart hypertrophy in the mice heart tissues from each group was calculated basing on the expression level of tubulin in FIG. 7.

IL-6 = assay: Western blot of IL-6 in heart tissue of high-fat diet mice; conditions: high-fat diet C57BL/6 mice, 5, 10 and 25 mg/kg/day intraperitoneally (groups 3 to 5) vs group 2 (high-fat diet, saline); relative to tubulin
Method: as §1, §2, §5

MEK-5 = assay: Western blot of MEK-5 in heart tissue of high-fat diet mice; conditions: high-fat diet C57BL/6 mice, 5, 10 and 25 mg/kg/day intraperitoneally (groups 3 to 5) vs group 2 (high-fat diet, saline); relative to tubulin
Method: as §1, §2, §5

ERK-5 = assay: Western blot of ERK-5 in heart tissue of high-fat diet mice; conditions: high-fat diet C57BL/6 mice, 5, 10 and 25 mg/kg/day intraperitoneally (groups 3 to 5) vs group 2 (high-fat diet, saline); relative to tubulin
Method: as §1, §2, §5

p38α protein = assay: Western blot of p38α protein in heart tissue of high-fat diet mice; conditions: high-fat diet C57BL/6 mice, 5, 10 and 25 mg/kg/day intraperitoneally (groups 3 to 5) vs group 2 (high-fat diet, saline); relative to tubulin
Method: (§6) The male C57BL/6 mice at the age of 6 weeks were divided into 5 groups for 8 mice in each group. The each group of mice were feed at 24±2° C. of temperature, humidity of 55±10% and 12/12 light cycle for 8 weeks, wherein the group 1 was control group on a normal diet (PMI Nutrition International, Brentwood, Mo., USA) and injected 0.9% saline intraperitoneally; the group 2 was fed high-fat diet to induce the mice into heart hypertrophy model and injected 0.9% saline intraperitoneally; the group 3 was fed high-fat diet and SEQ ID NO.:1 peptide was injected intraperitoneally with the dose of 5 mg/kg/day; the group 4 was fed high-fat diet and SEQ ID NO.:1 peptide was injected intraperitoneally with the dose of 10 mg/kg/day; the group 5 was fed high-fat diet and SEQ ID NO.:1 peptide was injected intraperitoneally with the dose of 25 mg/kg/day. […]
as §2
(§7) The protein extraction of the mice heart tissues from the each group in example 2 were processed by the western blot method in example 3 to observe the expressions of p38α protein and JNK. The results were shown at FIGS. 8 and 9, wherein the tubulin was used for an internal control in FIG. 8 and the expression levels of p38α protein and JNK were calculated basing on the expression level of tubulin in each figure of FIG. 9.

JNK = assay: Western blot of JNK in heart tissue of high-fat diet mice; conditions: high-fat diet C57BL/6 mice, 5, 10 and 25 mg/kg/day intraperitoneally (groups 3 to 5) vs group 2 (high-fat diet, saline); relative to tubulin
Method: as §6, §2, §7

FGF-2 = assay: Western blot of FGF-2 in heart tissue of high-fat diet mice; conditions: high-fat diet C57BL/6 mice, 5, 10 and 25 mg/kg/day intraperitoneally (groups 3 to 5) vs group 2 (high-fat diet, saline); relative to tubulin
Method: as §1, §2
(§8) The protein extraction of the mice heart tissues from the each group in example 2 were processed by the western blot method in example 3 to observe the expressions of the related proteins of cardiac fibrosis pathway including: FGF-2, ERK-1, UPA, MMP-2 and MMP-9. The results were shown at FIGS. 10 and 11, wherein the tubulin was used for an internal control in FIG. 10 and the expression levels of FGF-2, ERK-1, UPA, MMP-2 and MMP-9 in the mice heart tissues from the each group was calculated basing on the expression level of tubulin in each figures of FIG. 11.

ERK-1 = assay: Western blot of ERK-1 in heart tissue of high-fat diet mice; conditions: high-fat diet C57BL/6 mice, 5, 10 and 25 mg/kg/day intraperitoneally (groups 3 to 5) vs group 2 (high-fat diet, saline); relative to tubulin
Method: as §1, §2, §8

UPA = assay: Western blot of UPA in heart tissue of high-fat diet mice; conditions: high-fat diet C57BL/6 mice, 5, 10 and 25 mg/kg/day intraperitoneally (groups 3 to 5) vs group 2 (high-fat diet, saline); relative to tubulin
Method: as §1, §2, §8

MMP-2 = assay: Western blot of MMP-2 in heart tissue of high-fat diet mice; conditions: high-fat diet C57BL/6 mice, 5, 10 and 25 mg/kg/day intraperitoneally (groups 3 to 5) vs group 2 (high-fat diet, saline); relative to tubulin
Method: as §1, §2, §8

MMP-9 = assay: Western blot of MMP-9 in heart tissue of high-fat diet mice; conditions: high-fat diet C57BL/6 mice, 5, 10 and 25 mg/kg/day intraperitoneally (groups 3 to 5) vs group 2 (high-fat diet, saline); relative to tubulin
Method: as §1, §2, §8

ANP = assay: Western blot of ANP in heart tissue of high-fat diet mice; conditions: high-fat diet C57BL/6 mice, 5, 10 and 25 mg/kg/day intraperitoneally (groups 3 to 5) vs group 2 (high-fat diet, saline); relative to tubulin
Method: as §1, §2
(§9) The protein extraction of the mice heart tissues from the each group in example 2 were processed by the western blot method in example 3 to observe the expressions of the indicator of heart hypertrophy and heart failure. The results were shown at FIGS. 12 and 13, wherein the tubulin was used for an internal control in FIG. 12 and the expression levels of the ANP and BNP in the mice heart tissues from the each group was calculated basing on the expression level of tubulin in each figures of FIG. 13.

BNP = assay: Western blot of BNP in heart tissue of high-fat diet mice; conditions: high-fat diet C57BL/6 mice, 5, 10 and 25 mg/kg/day intraperitoneally (groups 3 to 5) vs group 2 (high-fat diet, saline); relative to tubulin
Method: as §1, §2, §9

myocardial cells = assay: H&E stained section of heart tissues of high-fat diet mice; conditions: 15 and 25 mg/kg/day intraperitoneally (groups 3 and 4) vs group 2 (high-fat diet, saline)
Method: The male C57BL/6 mice at the age of 6 weeks were divided into 5 groups for 8 mice in each group. The each group of mice were feed at 24±2° C. of temperature, humidity of 55±10% and 12/12 light cycle for 8 weeks, wherein the group 1 was control group on a normal diet (PMI Nutrition International, Brentwood, Mo., USA) and injected 0.9% saline intraperitoneally; the group 2 was fed high-fat diet to induce the mice into heart hypertrophy model and injected 0.9% saline intraperitoneally; the group 3 was fed high-fat diet and SEQ ID NO.:1 peptide was injected intraperitoneally with the dose of 5 mg/kg/day; the group 4 was fed high-fat diet and SEQ ID NO.:1 peptide was injected intraperitoneally with the dose of 10 mg/kg/day; the group 5 was fed high-fat diet and SEQ ID NO.:1 peptide was injected intraperitoneally with the dose of 25 mg/kg/day. The injection period of each group of mice was between the third week to the sixth week of feeding period. The high-fat diet contained 60% of energy as fat.
The feeding method was the same with example 1. Mice were divided into 4 groups for feeding at different conditions. The intraperitoneal injection was performed between the third week and the sixth week of the feeding period. […]

Substance: SEQ ID NO.:1 peptide: isolated peptide which amino acid sequence is SEQ ID NO.: 1; extracted from organisms, separated by hydrolysis or chemical synthesis (VHVV)
- expression level of Bcl-2 in the heart cell (Bcl-2 protein): obviously increased
- expression level of cytochrome C in the heart cell (cytochrome C): obviously decreased
- expression level of activated caspase-3 in the heart cell (caspase-3): obviously decreased
- expression level of NFTA-C3 in the heart cells [1]: obviously decreased
- expression level of calcineurin in the heart cells (calcineurin): obviously decreased
- expression level of STAT-3 in the heart tissues (STAT-3): obviously lower
- expression level of IL-6 in the heart tissues (IL-6): obviously lower
- expression level of MEK-5 in the heart tissues (MEK-5): obviously lower
- expression level of ERK-5 in the heart tissues (ERK-5): obviously lower
- expression level of p38α protein in the heart cells (p38α protein): significantly lower
- expression level of JNK in the heart cells (JNK): significantly lower
- expression level of FGF-2 (related protein of cardiac fibrosis pathway) in heart tissues (FGF-2): obviously lower
- expression level of ERK-1 (related protein of cardiac fibrosis pathway) in heart tissues (ERK-1): obviously lower
- expression level of UPA (related protein of cardiac fibrosis pathway) in heart tissues (UPA): obviously lower
- expression level of MMP-2 (related protein of cardiac fibrosis pathway) in heart tissues (MMP-2): obviously lower
- expression level of MMP-9 (related protein of cardiac fibrosis pathway) in heart tissues (MMP-9): obviously lower
- expression level of ANP in the heart tissues (ANP): obviously decreased
- expression level of BNP in the heart tissues (BNP): obviously decreased
- arrangement of myocardial cells in H&E stained heart sections (myocardial cells): more orderly and closely and has normal structure of heart muscles
